Test results: patent US20100172854A1, “ANTIBACTERIAL FORMULATIONS” (priority 2007, published 2010)
In brackets after ≈: the same amount, converted by molar mass.

Experiments:
[1] = test system: Propionibacterium acnes NCTC 737; assay: MBC assay; format: cell-based; settings: P. acnes NCTC 737
Experimental: The propionibacteria were cultured and maintained on Wilkins-Chalgren Anaerobe Medium (agar and broth) at pH 6.0; all cultures were incubated anaerobically at 37° C. for 72 hours.
(§1) This assay, normally carried out after an MIC assay, determines the minimum concentration of a compound that is lethal to the micro-organism being tested.
(§2) These samples were then individually sub-cultured on antibiotic-free agar medium, under the incubation conditions described above. Following incubation they were examined visually for microbial growth.

tumour = settings: compound isolated from Aspergillus fumigatus, believed to be Antioxidant 2246; cited from earlier work
S. aureus CPHL VISA Mu3 = assay: MIC assay; format: cell-based; settings: Staphylococcus aureus
Experimental: (§3) The staphylococci were cultured and maintained on Mueller-Hinton Medium (agar and broth) at pH 7.2; cultures were incubated aerobically at 37° C. for 19-20 hours.
(§4) This is a standard international method for quantitatively assessing the antimicrobial activity of a compound in a liquid medium. The method used a sterile 96-well microtitre plate, capable of holding about 200 μl of liquid per well. The wells contained liquid culture medium and ranges of decreasing concentrations of the relevant test compound in doubling dilutions (e.g. 1000, 500, 250, 125 . . . μg/ml, etc. down to 0.49 μg/ml). The culture media were as described above.
(§5) The wells were inoculated with a liquid suspension of freshly grown micro-organism and incubated under the conditions described above. After incubation, the microtitre plate was examined visually (with the aid of a light box) for cloudiness in each well, which would indicate microbial growth. The MIC value was recorded as the lowest concentration of test compound required to inhibit microbial growth, i.e. the lowest concentration for which the liquid in the well remained clear.
(§6) The assays included both negative (culture medium with no micro-organisms) and positive (culture medium plus diluting solvent plus micro-organism) controls.

[2] = test system: Staphylococcus warneri ATCC 27836; assay: MIC assay; format: cell-based; settings: ATCC27836
Experimental: as §3, §4, §5, §6

[3] = test system: Staphylococcus capitis ATCC 27840; assay: MIC assay; format: cell-based; settings: ATCC27840
Experimental: as §3, §4, §5, §6

[4] = test system: Staphylococcus auricularis ATCC 33753; assay: MIC assay; format: cell-based; settings: ATCC33753
Experimental: as §3, §4, §5, §6

[5] = test system: Staphylococcus aureus ATCC 12600; assay: MIC assay; format: cell-based; settings: ATCC12600
Experimental: as §3, §4, §5, §6

[6] = test system: Staphylococcus aureus ATCC 29213; assay: MIC assay; format: cell-based; settings: ATCC29213, S. aureus ATCC 29213
Experimental: as §3, §4, §5, §6

S. aureus NCTC 12493 = assay: MIC assay; format: cell-based; settings: Staphylococcus aureus, NCTC12493, resistance phenotype Met
Experimental: as §3, §4, §5, §6

[7] = test system: Staphylococcus cohnii ATCC 29974; assay: MIC assay; format: cell-based; settings: ATCC29974
Experimental: as §3, §4, §5, §6

S. aureus NCTC 12981 = assay: MIC assay; format: cell-based; settings: Staphylococcus aureus, NCTC12981
Experimental: as §3, §4, §5, §6

S. aureus ATCC 25923 = assay: MIC assay; format: cell-based; settings: Staphylococcus aureus, ATCC25923
Experimental: as §3, §4, §5, §6

S. aureus ATCC 12600-U = assay: MIC assay; format: cell-based; settings: Staphylococcus aureus, ATCC12600
Experimental: as §3, §4, §5, §6

S. aureus ATCC 12602 = assay: MIC assay; format: cell-based; settings: Staphylococcus aureus, ATCC12602
Experimental: as §3, §4, §5, §6

[8] = test system: Streptococcus mutans ATCC 35668; assay: MIC assay; format: cell-based; settings: ATCC35668
Experimental: (§7) The S. mutans strains were cultured and maintained on Wilkins-Chalgren Anaerobe Medium (agar and broth) at pH 7.0 supplemented with 1 g/L glucose; all cultures were incubated at 37° C. for 48 h in an atmosphere containing 5% CO2.
as §4, §5, §6

[9] = test system: Streptococcus mutans ATCC 25175; assay: MIC assay; format: cell-based; settings: ATCC25175
Experimental: as §7, §4, §5, §6

[10] = test system: Corynebacterium mucifaciens ATCC 700355; assay: MBC assay; format: cell-based; settings: ATCC700355
Experimental: as §1, §2

[11] = test system: Bacillus cereus ATCC 11778; assay: MBC assay; format: cell-based
Experimental: as §1, §2

[12] = test system: Streptococcus sobrinus ATCC 33478; assay: MBC assay; format: cell-based
Experimental: as §1, §2

[13] = test system: Prevotella nigrescens ATCC 33563; assay: MBC assay; format: cell-based
Experimental: as §1, §2

[14] = test system: Clostridium sporogenes ATCC 3584; assay: MBC assay; format: cell-based
Experimental: as §1, §2

[15] = test system: Listeria monocytogenes ATCC 15313; assay: MBC assay; format: cell-based
Experimental: as §1, §2

[16] = test system: Actinomyces naeslundii ATCC 12104; assay: MBC assay; format: cell-based
Experimental: as §1, §2

[17] = test system: Clostridium difficile ATCC 7000057; assay: MBC assay; format: cell-based
Experimental: as §1, §2

[18] = test system: Gardnerella vaginalis ATCC 14018; assay: MBC assay; format: cell-based
Experimental: as §1, §2

[19] = test system: Porphyromonas gingivalis NCTC 11834; assay: MBC assay; format: cell-based
Experimental: (§8) The P. gingivalis strains were cultured and maintained on Wilkins-Chalgren Anaerobe Medium (agar and broth) at pH 7.0; all cultures were incubated anaerobically at 37° C. for 5-7 days.
as §1, §2

[20] = test system: Porphyromonas gingivalis ATCC BAA-308; assay: MBC assay; format: cell-based
Experimental: as §8, §1, §2

[21] = test system: Porphyromonas gingivalis ATCC 53978; assay: MBC assay; format: cell-based
Experimental: as §8, §1, §2

Cc1cc(Cc2cc(C)cc(C(C)(C)C)c2O)c(O)c(C(C)(C)C)c1 [AO 2246, 2,2′-methylene-bis(4-methyl-6-tert-butylphenol)]
MBC ([1]; Cutibacterium acnes, NCTC737): 15.6 µg/mL (≈ 45.8 µM)
MIC/MBC Ratio [1]: 0.25
anti-tumour activity (tumour): anti-tumour activity
MIC (S. aureus CPHL VISA Mu3): 1.95 µg/mL (≈ 5.73 µM)
MIC [2]: 15.6 µg/mL (≈ 45.8 µM)
MIC [3]: 3.9 µg/mL (≈ 11.5 µM)
MIC [4]: 1.95 µg/mL (≈ 5.73 µM)
MIC [5]: 0.98 µg/mL (≈ 2.88 µM)
MIC [6]: 3.9 µg/mL (≈ 11.5 µM)
MIC (S. aureus NCTC 12493): 0.98 µg/mL (≈ 2.88 µM)
MIC [7]: 3.9 µg/mL (≈ 11.5 µM)
MIC (S. aureus NCTC 12981): 1.95 µg/mL (≈ 5.73 µM)
MIC (S. aureus ATCC 25923): 7.8 µg/mL (≈ 22.9 µM)
MIC (S. aureus ATCC 12600-U): 0.98 µg/mL (≈ 2.88 µM)
MIC (S. aureus ATCC 12602): 1.95 µg/mL (≈ 5.73 µM)
MIC [8]: 7.8 µg/mL (≈ 22.9 µM)
MIC [9]: 15.6 µg/mL (≈ 45.8 µM)
MBC ([10]; Corynebacterium mucifaciens ATCC 700355): 3.9 µg/mL (≈ 11.5 µM)
MIC/MBC Ratio ([10]; Corynebacterium mucifaciens): 0.5
MIC/MBC Ratio [11]: 0.5
MBC ([11]; ATCC11778): 3.9 µg/mL (≈ 11.5 µM)
MIC/MBC Ratio [12]: 0.5
MBC ([12]; ATCC33478): 31.2 µg/mL (≈ 91.8 µM)
MIC/MBC Ratio [13]: <0.5
MBC ([13]; ATCC33563): > 15.6 µg/mL
MIC/MBC Ratio [14]: 0.125
MBC ([14]; ATCC3584): 31.2 µg/mL (≈ 91.8 µM)
MIC/MBC Ratio [15]: 0.25
MBC ([15]; ATCC15313): 7.8 µg/mL (≈ 22.9 µM)
MIC/MBC Ratio [16]: 0.5
MBC ([16]; ATCC12104): 3.9 µg/mL (≈ 11.5 µM)
MIC/MBC Ratio [17]: 1
MBC ([17]; Clostridioides difficile, ATCC7000057): 3.9 µg/mL (≈ 11.5 µM)
MIC/MBC Ratio [18]: 1
MBC ([18]; ATCC14018): 15.6 µg/mL (≈ 45.8 µM)
MIC/MBC Ratio [19]: 1
MBC ([19]; NCTC11834): 3.9 µg/mL (≈ 11.5 µM)
MIC/MBC Ratio [20]: 1
MBC ([20]; ATCCBAA308): 3.9 µg/mL (≈ 11.5 µM)
MBC [21]: 1.95 µg/mL (≈ 5.73 µM)
MIC/MBC Ratio [21]: 0.5
